This note sets out measurements from patent publication US20250032485A1, “APPLICATION OF IMIDAZO [1,2-A] PYRAZINE COMPOUNDS OR THEIR PHARMACEUTICALLY ACCEPTABLE SALTS IN THE PREPARATION OF ANTI-CORONAVIRUS DRUGS” (GUANGZHOU MEDICAL UNIVERSITY, priority 2023, published 2025).

The target of the assay is PLpro of SARS-CoV-2 (Severe acute respiratory syndrome coronavirus 2, UniProt P0DTD1). The experiment in a line: Enzyme activity test in vitro: inhibition of PLpro at fixed concentration 50 μM (RLRGG-AMC substrate). It counts as biochemical. As to conditions: read-out: Inhibition rate at 50 μM (%).

As a reminder, the inhibition is how much of the control response was suppressed. With `O=C(O)c1cccc(Nc2c(-c3ccccc3)nc3cnccn23)c1` [P19497, 3-[(2-phenylimidazo [1,2-a]pyrazin-3-yl)amino]benzoic acid], the inhibition at 50 µM turned out to be 31.2%. The figure for `CCOC(=O)c1ccc(Nc2c(-c3cccc(Cl)c3)nc3cnccn23)cc1` [P22522, ethyl 4-[[2-(3-chlorophenyl)imidazo[1,2-a]pyrazin-3-yl]amino] benzoate] is 32.3%; for `O=C(NCc1ccco1)c1cccc(Nc2c(-c3ccc(Cl)cc3)nc3cnccn23)c1` [P22469, 3-[[2-(4-chlorophenyl)imidazo[1,2-a]pyrazin-3-yl]amino]-N-(furan-2-ylmethyl) benzamide] it is 40.5%.

As for `CCOC(=O)c1ccc(Nc2c(-c3ccc(N4CCOCC4)cc3)nc3cnccn23)cc1` [P24803, ethyl 4-[[2-(4-morpholin-4-ylphenyl)imidazo [1,2-a]pyrazin-3-yl]amino]benzoate], the inhibition at 50 µM turned out to be 24.7%.

As for `CN(C)c1ccc(-c2nc3cnccn3c2Nc2cccc(C(N)=O)c2)cc1` [P22406, 3-[[2-[4-(dimethyl-amino)phenyl]imidazo [1,2-a]pyrazin-3-yl]amino]benzamide], the inhibition at 50 µM was determined as 37.2%. As for `COC(=O)c1cccc(Nc2c(-c3cccc(O)c3)nc3cnccn23)c1` [P37288, methyl 3-[[2-(3-hydroxy-phenyl)imidazo[1,2-a]pyrazin-3-yl]amino]benzoate], the figure is 13.2%.

As for `O=C(c1cccc(Nc2c(-c3ccccc3)nc3cnccn23)c1)N1CCCCC1` [P22458, [3-[(2-phenylimidazo [1,2-a]pyrazin-3-yl)amino]phenyl]-piperidin-1-ylmethanone], the inhibition at 50 µM stood at 35.5%. As for `COc1ccc(-c2nc3cnccn3c2Nc2ccc(C(=O)NCC3CCCO3)cc2)cc1` (centres unmarked) [P22473, 4-[[2-(4-methoxy-phenyl)imidazo[1,2-a]pyrazin-3-yl]amino]-N-(oxolan-2-ylmethyl) benzamide], the figure is 36.8%. For the compound `O=C(NCc1ccco1)c1cccc(Nc2c(-c3ccccc3)nc3cnccn23)c1` [P22449, N-(furan-2-ylmethyl)-3-[(2-phenylimidazo [1,2-a]pyrazin-3-yl)amino]benzamide], the inhibition at 50 µM was 27.5%. The figure for `CSc1ccc(-c2nc3cnccn3c2Nc2cccc(C(=O)N3CCOCC3)c2)cc1` [P22439, [3-[[2-(4-methyl-sulfanylphenyl)imidazo [1,2-a]pyrazin-3-yl]amino]phenyl]-morpholin-4-ylmethanone] is 23.2%. The figure for `CCc1cccc(C)c1Nc1c(-c2ccc(NC(C)=O)cc2)nc2cnccn12` [P22513, N-[4-[3-(2-ethyl-6-methylanilino)imidazo [1,2-a]pyrazin-2-yl]phenyl]acetamide] is 21.9%; for `Cc1ccc(-c2nc3cnccn3c2Nc2ccc(C(=O)NCCN(C)C)cc2)cc1` [P22453, N-[2-(dimethylamino)ethyl]-4-[[2-(4-methylphenyl)imidazo [1,2-a]pyrazin-3-yl]amino]benzamide] it is 36.6%; for `CCNC(=O)c1ccc(Nc2c(-c3ccccc3)nc3cnccn23)cc1` [P22461, N-ethyl-4-[(2-phenyl-imidazo[1,2-a]pyrazin-3-yl)amino] benzamide] it is 32.3%.

As to `COc1cc(-c2nc3cnccn3c2Nc2cccc(C(=O)O)c2)ccc1O` [P19506, 3-[[2-(4-hydroxy-3-methoxyphenyl)imidazo [1,2-a]pyrazin-3-yl]amino]benzoic acid], the inhibition at 50 µM was determined as 34%.

Regarding `COC(=O)c1ccc(-c2nc3cnccn3c2Nc2ccc3c(c2)OCCO3)cc1` [P24862, methyl 4-[3-(2,3-dihydro-1,4-benzodioxin-6-ylamino)imidazo[1,2-a]pyrazin-2-yl] benzoate], the inhibition at 50 µM was found to be 30.1%. The figure for `O=C(O)c1cccc(Nc2c(-c3cccc(Br)c3)nc3cnccn23)c1` [P19467, 3-[[2-(3-bromophenyl)imidazo[1,2-a]pyrazin-3-yl]amino] benzoic acid] is 27.3%; for `CSc1ccc(-c2nc3cnccn3c2Nc2cccc(C(=O)NCCN(C)C)c2)cc1` [P22467, N-[2-(dimethylamino)ethyl]-3-[[2-(4-methylsulfanylphenyl)imidazo[1,2-a]pyrazin-3-yl]amino] benzamide] it is 29.8%. The figure for `CN(C)c1ccc(-c2nc3cnccn3c2Nc2cccc(C(=O)O)c2)cc1` [P19447, 3-[[2-[4-(dimethyl-amino)phenyl]imidazo [1,2-a]pyrazin-3-yl]amino]benzoic acid] is 42.1%; for `COC(=O)c1ccc(-c2nc3cnccn3c2Nc2ccc3c(c2)OCO3)cc1` [P24872, methyl 4-[3-(1,3-benzodioxol-5-ylamino)imidazo [1,2-a]pyrazin-2-yl]benzoate] it is 27.2%; for `CSc1ccc(-c2nc3cnccn3c2Nc2cccc(C(=O)NCC3CCCO3)c2)cc1` (centres unmarked) [P22418, 3-[[2-(4-methyl-sulfanylphenyl)imidazo [1,2-a]pyrazin-3-yl]amino]-N-(oxolan-2-ylmethyl)benzamide] it is 34.5%. The figure for `CSc1ccc(-c2nc3cnccn3c2Nc2ccc(C(=O)NC(C)C)cc2)cc1` [P22462, 4-[[2-(4-methyl-sulfanylphenyl)imidazo [1,2-a]pyrazin-3-yl]amino]-N-propan-2-ylbenzamide] is 40.7%; for `CCOC(=O)c1ccc(Nc2c(-c3ccc(N(C)C)cc3)nc3cnccn23)cc1` [P22502, ethyl 4-[[2-[4-(dimethyl-amino)phenyl]imidazo [1,2-a]pyrazin-3-yl]amino]benzoate] it is 14.4%; for `O=C(O)c1ccc(Nc2c(-c3cccc(Br)c3)nc3cnccn23)cc1` [P18234, 4-[[2-(3-bromophenyl)imidazo[1,2-a]pyrazin-3-yl]amino] benzoic acid] it is 20.5%.

As to `CCNC(=O)c1cccc(Nc2c(-c3ccc(Cl)cc3)nc3cnccn23)c1` [P22456, 3-[[2-(4-chlorophenyl)imidazo[1,2-a]pyrazin-3-yl]amino]-N-ethylbenzamide], the inhibition at 50 µM is 30.3%. The figure for `COc1ccc(-c2nc3cnccn3c2Nc2ccc3c(c2)OCCO3)cc1OC` [P24852, N-(2,3-dihydro-1,4-benzodioxin-6-yl)-2-(3,4-dimethoxy-phenyl)imidazo[1,2-a]pyrazin-3-amine] is 24.9%; for `CSc1ccc(-c2nc3cnccn3c2Nc2cccc(C(=O)NC(C)C)c2)cc1` [P22417, 3-[[2-(4-methyl-sulfanylphenyl)imidazo [1,2-a]pyrazin-3-yl]amino]-N-propan-2-ylbenzamide] it is 43.4%. Consider `O=C(O)c1cccc(Nc2c(-c3cc(Br)ccc3O)nc3cnccn23)c1` [P19487, 3-[[2-(5-bromo-2-hydroxyphenyl)imidazo [1,2-a]pyrazin-3-yl]amino]benzoic acid], for which the inhibition at 50 µM came to 27.3%.

Take `CCOC(=O)c1ccc(Nc2c(-c3ccc(SC)cc3)nc3cnccn23)cc1` [P22541, ethyl 4-[[2-(4-methyl-sulfanylphenyl)imidazo [1,2-a]pyrazin-3-yl]amino]benzoate]: the inhibition at 50 µM is 33.8%. The figure for `CCNC(=O)c1ccc(Nc2c(-c3ccc(OC)c(OC)c3)nc3cnccn23)cc1` [P22410, 4-[[2-(3,4-dimethoxy-phenyl)imidazo[1,2-a]pyrazin-3-yl]amino]-N-ethylbenzamide] is 42.2%.
